compound: COc1cccc2cc(-c3nc([C@H]4CC[C@H](C(=O)O)CC4)n4ncnc(N)c34)[nH]c12 [OSI-027] + CC(=O)Nc1cccc(-n2c(=O)n(C3CC3)c(=O)c3c(Nc4ccc(I)cc4F)n(C)c(=O)c(C)c32)c1 [Trametinib] (partner 0.02 µM); assay: relative viability (nuclei count vs DMSO), 5 days (fraction); higher = more cells survive; settings: first compound 1 µM
Summary of the method: (§1)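 Dosing by pin tool came one day after lung cancer cell lines were seeded in 1536-well plates, using either one drug or a fixed anchor-drug dose plus five library-drug doses (not always all listed) in √10 steps. After 5 days, nuclei were counted on 4× images. Relative viability is treated-well nuclei count divided by vehicle-well nuclei count, and values are medians of duplicate plates.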

Row | Cell Line | relative viability
1 | NCI-H520 | 0.188
2 | NCI-H2228 | 0.284

compound: Cc1nc(NC(=O)N2CCC[C@H]2C(N)=O)sc1-c1ccnc(C(C)(C)C(F)(F)F)c1 [Alpelisib] + CC(=O)c1c(C)c2cnc(Nc3ccc(N4CCNCC4)cn3)nc2n(C2CCCC2)c1=O [Palbociclib] (partner 0.5 µM); assay: as above; settings: first compound 0.04 µM
Summary of the method: as §1

Row | Cell Line | relative viability
3 | NCI-H1915 | 0.555
4 | NCI-H838 | 0.246
5 | A-427 | 0.5
6 | NCI-H2009 | 0.235
7 | EKVX | 0.349
8 | NCI-H2087 | 0.301
9 | NCI-H1734 | 0.307
10 | LCLC-103H | 0.451
11 | LU99A | 0.374
12 | NCI-H460 | 0.338
13 | NCI-H2170 | 0.351
14 | SK-LU-1 | 0.398
15 | NCI-H522 | 0.993
16 | COR-L23 | 0.271
17 | HCC-15 | 0.749
18 | NCI-H1944 | 0.303

Row | Cell Line | relative viability
19 | EMC-BAC-2 | 0.5
20 | NCI-H1792 | 0.631
21 | NCI-H1395 | 0.634
22 | LC-2-ad | 0.547
23 | NCI-H2085 | 0.464
24 | NCI-H727 | 0.569
25 | NCI-H647 | 0.322
26 | HARA | 0.295
27 | NCI-H3122 | 0.163
28 | NCI-H358 | 0.118
29 | CAL-12T | 0.413
30 | COR-L 105 | 0.394
31 | LCLC-97TM1 | 0.206
32 | NCI-H520 | 0.241
33 | NCI-H2228 | 0.748

same assay, conditions: first compound 0.1265 µM

Row | Cell Line | relative viability
34 | NCI-H1915 | 0.531
35 | NCI-H838 | 0.222
36 | A-427 | 0.507
37 | NCI-H2009 | 0.23
38 | EKVX | 0.325
39 | NCI-H2087 | 0.237
40 | NCI-H1734 | 0.282
41 | LCLC-103H | 0.489
42 | LU99A | 0.379
43 | NCI-H460 | 0.155
44 | NCI-H2170 | 0.337
45 | SK-LU-1 | 0.372
46 | NCI-H522 | 0.752
47 | COR-L23 | 0.241
48 | HCC-15 | 0.702
49 | NCI-H1944 | 0.302

Row | Cell Line | relative viability
50 | EMC-BAC-2 | 0.481
51 | NCI-H1792 | 0.62
52 | NCI-H1395 | 0.651
53 | LC-2-ad | 0.47
54 | NCI-H2085 | 0.484
55 | NCI-H727 | 0.584
56 | NCI-H647 | 0.447
57 | HARA | 0.25
58 | NCI-H3122 | 0.162
59 | NCI-H358 | 0.104
60 | CAL-12T | 0.38
61 | COR-L 105 | 0.439
62 | LCLC-97TM1 | 0.177
63 | NCI-H520 | 0.235
64 | NCI-H2228 | 0.519

same assay, conditions: first compound 0.4 µM

Row | Cell Line | relative viability
65 | NCI-H1915 | 0.573
66 | NCI-H838 | 0.24
67 | A-427 | 0.521
68 | NCI-H2009 | 0.245
69 | EKVX | 0.386
70 | NCI-H2087 | 0.246
71 | NCI-H1734 | 0.373
72 | LCLC-103H | 0.457
73 | LU99A | 0.363
74 | NCI-H460 | 0.166
75 | NCI-H2170 | 0.36
76 | SK-LU-1 | 0.386
77 | NCI-H522 | 0.87
78 | COR-L23 | 0.253
79 | HCC-15 | 0.773
80 | NCI-H1944 | 0.345

Row | Cell Line | relative viability
81 | EMC-BAC-2 | 0.505
82 | NCI-H1792 | 0.658
83 | NCI-H1395 | 0.649
84 | LC-2-ad | 0.467
85 | NCI-H2085 | 0.455
86 | NCI-H727 | 0.702
87 | NCI-H647 | 0.421
88 | HARA | 0.257
89 | NCI-H3122 | 0.188
90 | NCI-H358 | 0.139
91 | CAL-12T | 0.647
92 | COR-L 105 | 0.414
93 | LCLC-97TM1 | 0.183
94 | NCI-H520 | 0.195
95 | NCI-H2228 | 0.771

same assay, conditions: first compound 1.265 µM

Row | Cell Line | relative viability
96 | NCI-H1915 | 0.474
97 | NCI-H838 | 0.18
98 | A-427 | 0.493
99 | NCI-H2009 | 0.215
100 | EKVX | 0.313
101 | NCI-H2087 | 0.257
102 | NCI-H1734 | 0.263
103 | LCLC-103H | 0.427
104 | LU99A | 0.259
105 | NCI-H460 | 0.0802
106 | NCI-H2170 | 0.246
107 | SK-LU-1 | 0.326
108 | NCI-H522 | 0.944
109 | COR-L23 | 0.215
110 | HCC-15 | 0.617
111 | NCI-H1944 | 0.241

Row | Cell Line | relative viability
112 | EMC-BAC-2 | 0.348
113 | NCI-H1792 | 0.508
114 | NCI-H1395 | 0.475
115 | LC-2-ad | 0.404
116 | NCI-H2085 | 0.447
117 | NCI-H727 | 0.452
118 | NCI-H647 | 0.289
119 | HARA | 0.172
120 | NCI-H3122 | 0.185
121 | NCI-H358 | 0.103
122 | CAL-12T | 0.415
123 | COR-L 105 | 0.367
124 | LCLC-97TM1 | 0.119
125 | NCI-H520 | 0.19
126 | NCI-H2228 | 0.332

same assay, conditions: first compound 4 µM

Row | Cell Line | relative viability
127 | NCI-H1915 | 0.471
128 | NCI-H838 | 0.182
129 | A-427 | 0.437
130 | NCI-H2009 | 0.164
131 | EKVX | 0.242
132 | NCI-H2087 | 0.193
133 | NCI-H1734 | 0.227
134 | LCLC-103H | 0.37
135 | LU99A | 0.22
136 | NCI-H460 | 0.114
137 | NCI-H2170 | 0.21
138 | SK-LU-1 | 0.377
139 | NCI-H522 | 0.657
140 | COR-L23 | 0.212
141 | HCC-15 | 0.551
142 | NCI-H1944 | 0.221
143 | EMC-BAC-2 | 0.324
144 | NCI-H1792 | 0.321
145 | NCI-H1395 | 0.589
146 | LC-2-ad | 0.409
147 | NCI-H2085 | 0.446
148 | NCI-H727 | 0.523
149 | NCI-H647 | 0.275
150 | HARA | 0.156
151 | NCI-H3122 | 0.144
152 | NCI-H358 | 0.103
153 | CAL-12T | 0.355
154 | COR-L 105 | 0.364

Reference: the supplement of paper PMC10307832
